In general, inhibition refers to the percentage by which the read-out fell short of the control. For orientation: inhibition in vivo means the relative decrease from the control value, in per cent. Low values mean a weak effect, high ones a strong effect.

Each structure is given as a SMILES string. Structures can show the parent of a compound that is named as a salt.

The subject of assay [1] is PAF-Induced Platelet Aggregation. The assay is described as follows: Inhibitory Action on PAF-Induced Platelet Aggregation. It is filed as cell-based, New Zealand white male rabbits. Particulars: Oryctolagus cuniculus, Drug Concentration: 3 × 10^-5 M, rabbit PRP.
Description: Blood was collected from the hearts of conscious New Zealand white male rabbits weighing 2 to 3 kg using citric acid as an anticoagulant (one volume part of 3.15% citric acid per 9 volume parts of the whole blood). The blood was subjected to a centrifuge at 800 rpm for ten minutes to obtain platelet rich plasma (PRP). The remaining blood after collecting the PRP was subjected to a centrifuge at 3000 rpm for ten minutes to obtain platelet poor plasma (PPP). PRP was diluted with PPP, and the number of platelets was adjusted to 500,000/μl. Platelet aggregation was examined by means of turbidimetry [Born, Nature, 194, 927-929 (1962)] with 8 channel aggregometer (NBS HEMA TRACER 6 Nikoh, Bioscience, Japan). More concretely, PRP (250 μl) was kept warm (37° C.) for three minutes in a silicon-processed cuvette, to which was added a test sample (25 μl) dissolved in a physiological saline or in 10mM dimethylsulfoxide followed by dilution with a physiological saline. Two minutes later, PAF (25 μl, 3×10^-9 -1×10^-8 M), dissolved in a physiological saline, was added and then the maximum aggregation rate was determined. As the control, physiological saline without test sample was added to the cuvette, and the inhibitory rate thereon was determined.
Assay [2] relates to PAF-Induced Hypotension. The assay is described as follows: Inhibitory Action on PAF-Induced Hypotension. Type of assay: in vivo, SD (Jcl) male rats. Particulars: po, rat; for inhibition in vivo at 30 mg/kg: 30 mg/kg p.o.; for inhibition in vivo at 3 mg/kg: 3 mg/kg p.o.; for inhibition in vivo at 10 mg/kg: 10 mg/kg p.o. Here is the method: SD (Jcl) male rats of 6 to 8 week old were subjected to the experiment. After fasting overnight, the rats were cannulated into the femoral artery and vein under anesthesia with pentobarbital. A transducer (MPU-0.5-290O-III, TOYO BALDWIN, Japan) was connected with the artery cannula, and blood pressure was continuously measured. […] The rate of inhibition of lowering of blood pressure after administration of the test samples against the control was evaluated.

On to `COc1ccc2c(c1)CCC(C(=O)N1CCN(Cc3cc(OC)c(OC)c(OC)c3)CC1)=C2` [Example 1, 1-(7-methoxy-1,2-dihydro-3-naphthoyl)-4-(3,4,5-trimethoxybenzyl)piperazinehydrochloride], for which, in assay [1], the inhibition at 30 µM was found to be 100%.
Consider `COc1cc2c(cc1OC)CCC(C(=O)N1CCN(Cc3cc(OC)c(OC)c(OC)c3)CC1)=C2` [Example 5, 1-(6,7-dimethoxy-1,2-dihydro-3-naphthoyl)-4-(3,4,5-trimethoxybenzyl)piperazine hydrochloride], for which the inhibition in vivo at 30 mg/kg in assay [2] (after 1 hr) is 77%; in assay [2] (after 2 hrs), 75%; in assay [2] (after 4 hrs), 49%. This compound also registered an inhibition at 30 µM in assay [1] of 100%.
In turn, `COc1cc(CN2CCN(C(=O)c3ccc4ccccc4c3)CC2)cc(OC)c1OC` [Example 7, 1-(2-naphthoyl)-4-(3,4,5-trimethoxybenzyl)piperazine hydrochloride] registered an inhibition at 30 µM in assay [1] of 95%.
Take `COc1cc(CN2CCN(C(=O)c3cccc4ccccc34)CC2)cc(OC)c1OC` [Example 8, 1-(1-naphthoyl)-4-(3,4,5-trimethoxybenzyl)piperazine hydrochloride]: at 30 µM the inhibition in assay [1] was 84%.
On to `COc1ccc2cc(C(=O)N3CCN(Cc4cc(OC)c(OC)c(OC)c4)CC3)ccc2c1` [Example 9, 1-(6-methoxy-2-naphthoyl)-4-(3,4,5-trimethoxybenzyl)piperazine hydrochloride], for which 30 µM produced 87% inhibition in assay [1].
The same measure, in the same setting: for `COc1cc(CN2CCN(C(=O)C3=Cc4cc(OC)c(OC)c(OC)c4CC3)CC2)cc(OC)c1OC` [Example 10, 1-(6,7,8-trimethoxy-1,2-dihydro-3-naphthoyl)-4-(3,4,5-trimethoxybenzyl)piperazine hydrochloride] the value was 87%; for `COc1cc(CN2CCN(C(=O)c3ccc4c(OC)c(OC)c(OC)cc4c3)CC2)cc(OC)c1OC` [Example 12, 1-(3,4,5-trimethoxybenzyl)-4-(5,6,7-trimethoxy)-2-naphthoyl)piperazine hydrochloride], 100%.
With `CCCCOc1ccc2c(c1)CCC(C(=O)N1CCN(Cc3cc(OC)c(OC)c(OC)c3)CC1)=C2` [Example 15, 1-(7-butoxy-1,2-dihydro-3-naphthoyl)-4-(3,4,5-trimethoxybenzyl)piperazine hydrochloride], in assay [1], the inhibition at 30 µM came out at 100%.
With `CCCCOc1ccc2cc(C(=O)N3CCN(Cc4cc(OC)c(OC)c(OC)c4)CC3)ccc2c1` [Example 17, 1-(6-butoxy-2-naphthoyl)-4(3,4,5-trimethoxybenzyl)piperazine hydrochloride], in assay [1], the inhibition at 30 µM worked out at 97%.
The compound `COc1cc2ccc(C(=O)N3CCN(Cc4cc(OC)c(OC)c(OC)c4)CC3)cc2cc1OC` [Example 21, 1-(6,7-dimethoxy-2-naphthoyl)-4-(3,4,5-trimethoxybenzyl)piperazinehydrochloride] had an inhibition at 30 µM in assay [1] of 93%.
In assay [1], `CCCCOc1cc2ccc(C(=O)N3CCN(Cc4cc(OC)c(OC)c(OC)c4)CC3)cc2cc1OCCCC` [Example 23, 1-(6,7-dibutoxy-2-naphthoyl)-4-(3,4,5-trimethoxybenzyl)piperazine hydrochloride] had an inhibition at 30 µM of 100%.
Same read-out and setting: then `COc1cc2ccccc2cc1C(=O)N1CCN(Cc2cc(OC)c(OC)c(OC)c2)CC1` [Example 24, 1-(3-methoxy-2-napththoyl)-4-(3,4,5-trimethoxybenzyl)piperazine hydrochloride], with 100%.
The same measure, in the same setting: for `COc1cc(CN2CCN(C(=O)c3ccc4c(c3)C(=O)c3ccccc3C4=O)CC2)cc(OC)c1OC` [Example 26, 1-(2-anthraquinonylcarbonyl)-4-(3,4,5-trimethoxybenzyl)piperazine] the value was 91%; for `COc1cc(CN2CCN(C(=O)C3=Cc4cc(OCc5ccccc5)c(OCc5ccccc5)cc4CC3)CC2)cc(OC)c1OC` [Example 28, 1-(6,7-dibenzyloxy-1,2-dihydro-3-naphthoyl)-4-(3,4,5-trimethoxybenzyl)piperazine hydrochloride], 87%.
Same read-out and setting: then `COc1cc(CN2CCN(C(=O)C3=Cc4ccc(OCc5ccccc5)cc4CC3)CC2)cc(OC)c1OC` [Example 32, 1-(7-benzyloxy-1,2-dihydro-3-naphthoyl)-4-(3,4,5-trimethoxybenzyl)piperazine hydrochloride], with 100%; and `COc1cc(CN2CCN(C(=O)C3=Cc4cc(OC(C)=O)c(OC(C)=O)cc4CC3)CC2)cc(OC)c1OC` [Example 36, 1-(6,7-diacetyloxy-1,2-dihydro-3-naphthoyl)-4-(3,4,5-trimethoxybenzyl)piperazine fumarate], with 86%.
`COc1cc(CN2CCN(C(=O)c3ccc4c(c3)C(=O)c3ccccc3-4)CC2)cc(OC)c1OC` [Example 38, 1-(9-oxo-2-fluorenylcarbonyl)-4-(3,4,5-trimethoxybenzyl)piperazine] showed an inhibition at 30 µM in assay [1] of 85%.
As to `COc1cc(CN2CCN(C(=O)c3ccc4c(c3)C(O)c3ccccc3-4)CC2)cc(OC)c1OC` (stereo not drawn) [Example 39, 1-(9-hydroxy-2-fluorenylcarbonyl)-4-(3,4,5-trimethoxybenzyl)piperazine hydrochloride], the inhibition in vivo at 30 mg/kg in assay [2] (after 1 hr) is 70%; in assay [2] (after 2 hrs), 64%; in assay [2] (after 4 hrs), 47%. Also, the inhibition at 30 µM in assay [1] amounted to 100%.
Compound `COc1cc2ccc(C(=O)N3CCN(Cc4cc(OC)c(OC)c(OC)c4)CC3)c(O)c2cc1OC` [Example 41, 1-(6,7-dimethoxy-1-hydroxy-2-naphthoyl)-4-(3,4,5-trimethoxybenzyl)piperazine hydrochloride] returned an inhibition at 30 µM in assay [1] of 97%.
Same read-out and setting: then `COc1cc(CN2CCN(C(=O)C3=Cc4ccc(OC)c(OC)c4CCC3)CC2)cc(OC)c1OC` [Example 43, 1-(3,4-dimethoxy-6,7-dihydro-5H-benzocyclohepten-8-ylcarbonyl)-4-(3,4,5-trimethoxybenzyl)piperazine hydrochloride], with 89%.
`COc1cc2c(cc1OC)CCCC(C(=O)N1CCN(Cc3cc(OC)c(OC)c(OC)c3)CC1)=C2` [Example 49, 1-(2,3-dimethoxy-6,7-dihydro-5H-benzocyclohepten-8-ylcarbonyl)-4-(3,4,5-trimethoxybenzyl)piperazine hydrochloride]: the inhibition in vivo at 30 mg/kg in assay [2] (after 1 hr) is 94%; in assay [2] (after 2 hrs), 97%; in assay [2] (after 4 hrs), 88%. In assay [1], the inhibition at 30 µM amounted to 100%.
With `COc1cc2c(cc1OC)CC(C(=O)N1CCN(C(=O)c3cc(OC)c(OC)c(OC)c3)CC1)=C2` [Example 61, 1-(5,6-dimethoxy-1-H-inden-2-ylcarbonyl)-4-(3,4,5-trimethoxybenzoyl)piperazine], the inhibition in vivo at 30 mg/kg in assay [2] (after 1 hr) came to 86%; in assay [2] (after 2 hrs), 82%; in assay [2] (after 4 hrs), 74%.
The like results for `CCOc1cc2c(cc1OCC)CCCC(C(=O)N1CCN(C(=O)c3cc(OC)c(OC)c(OC)c3)CC1)=C2` [Example 73, 1-(2,3-diethoxy-6,7-dihydro-5H-benzocyclohepten-8-ylcarbonyl)-4-(3,4,5-trimethoxybenzoyl)piperazine] were, in that order, 98%, 98% and 96%.
With `CCOc1c(OC)cc(C(=O)N2CCN(C(=O)C3=Cc4cc(OC)c(OC)cc4CCC3)CC2)cc1OC` [Example 75, 1-(2,3-dimethoxy-6,7-dihydro-5H-benzocyclohepten-8-ylcarbonyl)-4-(3,5-dimethoxy-4-ethoxy-benzoyl)piperazine], the inhibition in vivo at 30 mg/kg in assay [2] (after 1 hr) was found to be 61%; in assay [2] (after 2 hrs) it was 54%; in assay [2] (after 4 hrs) it was 61%.
Regarding `COc1cc2c(cc1OC)CCCC(C(=O)N1CCN(C(=S)c3cc(OC)c(OC)c(OC)c3)CC1)=C2` [Example 76, 1-(2,3-dimethoxy-6,7-dihydro-5H-benzocyclohepten-8-ylcarbonyl)-4-(3,4,5-trimethoxythiobenzoyl)piperazine], the inhibition in vivo at 3 mg/kg in assay [2] (after 1 hr) stood at 72%; in assay [2] (after 2 hrs) it was 69%; in assay [2] (after 4 hrs), 60%. The inhibition in vivo at 30 mg/kg in assay [2] (after 1 hr), in assay [2] (after 2 hrs) and in assay [2] (after 4 hrs) was 100% throughout.
As to `COc1cc(C(=O)N2CCN(C(=O)C3=Cc4ccc(OC)c(OC)c4CCC3)CC2)cc(OC)c1OC` [Example 78, 1-(3,4-dimethoxy-6,7-dihydro-5H-benzocyclohepten-8-ylcarbonyl)-4-(3,4,5-trimethoxybenzoyl)piperazine], the values for the inhibition in vivo at 30 mg/kg in assay [2] (after 1 hr), in assay [2] (after 2 hrs) and in assay [2] (after 4 hrs) were 73%, 57% and 26%, respectively.
On to `COc1cc2c(cc1OC)CC(C(=O)N1CCN(C(=O)c3cc(OC)c(OC)c(OC)c3)CC1)CC2` (stereo not drawn) [Example 79], for which the inhibition in vivo at 30 mg/kg in assay [2] (after 1 hr) came to 81%; in assay [2] (after 2 hrs) it was 88%; in assay [2] (after 4 hrs), 66%.
`COc1cc2c(cc1OC)CC(C(=O)N1CCN(C(=O)c3cc(OC)c(OC)c(OC)c3)CC1)CCC2` (stereo not drawn) [Example 86, 1-(2,3-dimethoxy-5,6,7,8-tetrahydrobenzocyclohepten-6-ylcarbonyl)-4-(3,4,5-trimethoxy-benzoyl)piperazine]: the inhibition in vivo at 10 mg/kg in assay [2] (after 1 hr) was 90%; in assay [2] (after 2 hrs), 92%; in assay [2] (after 4 hrs), 92%. Also, the inhibition in vivo at 30 mg/kg in assay [2] (after 1 hr), in assay [2] (after 2 hrs) and in assay [2] (after 4 hrs) was 100% in each case.

The values are drawn from patent publication US4880809A, “1,4-disubstituted piperazines (or homopiperazines) as platelet-activating factor antagonists” (Takeda Chemical Industries, Ltd., priority 1987, dated 1989).
